# Columns and labels:
# CREB-binding protein = CREB-binding protein (Homo sapiens, UniProt Q92793)
# [1] = biological target: Sphingosine 1-phosphate receptor 2 (Homo sapiens, UniProt O95136); format: functional
# [2] = biological target: Sphingosine 1-phosphate receptor 2 (Rattus norvegicus, UniProt P47752); format: functional
# Sphingosine 1-phosphate receptor 2 (Rattus norvegicus, UniProt P47752), sequence (P47752 whole entry): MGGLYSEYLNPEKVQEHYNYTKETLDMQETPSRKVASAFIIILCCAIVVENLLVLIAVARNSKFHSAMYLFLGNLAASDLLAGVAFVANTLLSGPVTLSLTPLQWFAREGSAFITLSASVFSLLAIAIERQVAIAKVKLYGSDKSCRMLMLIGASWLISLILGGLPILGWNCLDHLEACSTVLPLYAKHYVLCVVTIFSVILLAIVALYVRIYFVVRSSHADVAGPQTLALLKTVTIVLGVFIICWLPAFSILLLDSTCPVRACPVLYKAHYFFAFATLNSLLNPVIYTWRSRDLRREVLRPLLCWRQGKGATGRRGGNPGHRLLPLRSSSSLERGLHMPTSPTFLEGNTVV
# CREB-binding protein, sequence (Q92793 whole entry): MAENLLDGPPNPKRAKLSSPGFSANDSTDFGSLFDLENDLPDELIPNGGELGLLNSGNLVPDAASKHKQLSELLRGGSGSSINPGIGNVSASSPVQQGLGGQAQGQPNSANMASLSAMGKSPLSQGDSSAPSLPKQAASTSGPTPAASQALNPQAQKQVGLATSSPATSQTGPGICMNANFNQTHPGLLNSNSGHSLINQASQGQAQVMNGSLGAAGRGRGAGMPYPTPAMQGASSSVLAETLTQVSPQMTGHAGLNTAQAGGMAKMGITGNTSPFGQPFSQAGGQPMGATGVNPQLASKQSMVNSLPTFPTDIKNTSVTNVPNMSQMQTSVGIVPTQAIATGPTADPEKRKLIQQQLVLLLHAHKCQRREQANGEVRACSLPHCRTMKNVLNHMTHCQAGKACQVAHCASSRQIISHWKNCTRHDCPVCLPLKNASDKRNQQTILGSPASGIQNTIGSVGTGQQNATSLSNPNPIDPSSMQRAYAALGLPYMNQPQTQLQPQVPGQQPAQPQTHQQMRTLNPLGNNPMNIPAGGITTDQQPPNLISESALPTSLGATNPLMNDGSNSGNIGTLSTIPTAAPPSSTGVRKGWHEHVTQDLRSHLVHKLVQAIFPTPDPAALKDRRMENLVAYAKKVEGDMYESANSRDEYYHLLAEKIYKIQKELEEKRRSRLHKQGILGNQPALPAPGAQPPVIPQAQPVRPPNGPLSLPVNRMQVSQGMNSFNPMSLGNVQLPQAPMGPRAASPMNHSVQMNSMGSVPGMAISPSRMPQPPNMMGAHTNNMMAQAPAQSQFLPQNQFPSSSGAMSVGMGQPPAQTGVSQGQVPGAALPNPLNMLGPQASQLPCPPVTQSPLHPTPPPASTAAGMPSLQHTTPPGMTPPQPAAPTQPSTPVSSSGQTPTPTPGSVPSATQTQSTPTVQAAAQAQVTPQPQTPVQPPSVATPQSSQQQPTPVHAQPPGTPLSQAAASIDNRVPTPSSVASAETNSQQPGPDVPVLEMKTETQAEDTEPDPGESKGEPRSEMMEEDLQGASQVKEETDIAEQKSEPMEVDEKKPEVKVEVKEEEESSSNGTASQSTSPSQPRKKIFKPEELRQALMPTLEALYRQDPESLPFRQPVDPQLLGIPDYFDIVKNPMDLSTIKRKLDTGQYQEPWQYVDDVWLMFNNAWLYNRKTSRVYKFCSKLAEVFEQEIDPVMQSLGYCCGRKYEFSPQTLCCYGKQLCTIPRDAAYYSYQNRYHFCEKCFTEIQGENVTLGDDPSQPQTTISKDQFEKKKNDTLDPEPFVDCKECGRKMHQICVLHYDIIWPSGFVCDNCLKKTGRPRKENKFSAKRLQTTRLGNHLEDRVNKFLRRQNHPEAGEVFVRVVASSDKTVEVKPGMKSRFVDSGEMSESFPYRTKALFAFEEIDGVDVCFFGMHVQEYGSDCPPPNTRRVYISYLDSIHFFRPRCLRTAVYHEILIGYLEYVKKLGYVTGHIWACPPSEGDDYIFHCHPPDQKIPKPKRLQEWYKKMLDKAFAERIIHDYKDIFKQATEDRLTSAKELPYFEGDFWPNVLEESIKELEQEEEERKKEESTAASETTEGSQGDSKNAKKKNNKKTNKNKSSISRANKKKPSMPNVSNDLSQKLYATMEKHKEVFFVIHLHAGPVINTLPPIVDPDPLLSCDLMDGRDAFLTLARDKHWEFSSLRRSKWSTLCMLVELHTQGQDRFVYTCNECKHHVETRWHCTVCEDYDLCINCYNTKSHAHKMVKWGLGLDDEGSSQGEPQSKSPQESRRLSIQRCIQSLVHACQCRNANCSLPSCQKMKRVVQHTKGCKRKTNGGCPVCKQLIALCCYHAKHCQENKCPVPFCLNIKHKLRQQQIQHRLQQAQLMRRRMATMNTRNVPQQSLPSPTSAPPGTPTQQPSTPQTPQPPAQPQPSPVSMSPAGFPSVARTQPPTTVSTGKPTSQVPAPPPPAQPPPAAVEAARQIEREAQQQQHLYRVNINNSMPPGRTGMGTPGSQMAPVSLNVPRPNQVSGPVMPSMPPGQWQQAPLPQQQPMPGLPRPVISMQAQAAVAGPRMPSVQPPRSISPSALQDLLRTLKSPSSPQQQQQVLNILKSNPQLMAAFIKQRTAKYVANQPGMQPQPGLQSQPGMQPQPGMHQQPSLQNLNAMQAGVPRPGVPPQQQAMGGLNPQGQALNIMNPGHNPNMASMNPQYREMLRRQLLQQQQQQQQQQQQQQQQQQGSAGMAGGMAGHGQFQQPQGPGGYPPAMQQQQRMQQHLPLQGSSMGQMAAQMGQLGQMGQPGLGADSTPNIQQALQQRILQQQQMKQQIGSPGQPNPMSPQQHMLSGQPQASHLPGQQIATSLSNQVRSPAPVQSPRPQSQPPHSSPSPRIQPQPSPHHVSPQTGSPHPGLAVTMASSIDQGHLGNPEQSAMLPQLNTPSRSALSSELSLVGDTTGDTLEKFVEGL
# Sphingosine 1-phosphate receptor 2 (Homo sapiens, UniProt O95136), sequence (O95136 whole entry): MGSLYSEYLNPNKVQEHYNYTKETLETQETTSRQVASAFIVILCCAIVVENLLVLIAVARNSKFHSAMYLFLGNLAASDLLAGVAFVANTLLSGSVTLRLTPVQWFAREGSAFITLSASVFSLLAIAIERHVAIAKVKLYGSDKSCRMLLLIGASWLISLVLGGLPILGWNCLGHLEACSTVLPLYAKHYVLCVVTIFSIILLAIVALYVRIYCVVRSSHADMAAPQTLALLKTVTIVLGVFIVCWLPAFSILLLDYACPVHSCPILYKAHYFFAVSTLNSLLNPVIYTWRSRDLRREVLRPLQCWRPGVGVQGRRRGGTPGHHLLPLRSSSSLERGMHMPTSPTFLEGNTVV
IC50 (CREB-binding protein) [µM],IC50 [1] [µM],IC50 [2] [µM],Compound
3,–,–,O=C1[C@H](Cc2ccc(O)cc2)N2C(=O)CCN(C(=O)NCc3ccccc3)[C@H]2CN1Cc1cccc2ccccc12
–,0.02,0.02,Cc1nn(C)c2nc(NNC(=O)Nc3cc(Cl)nc(Cl)c3)cc(C(C)C)c12
